Assay results published in patent US20090306053A1, “Highly selective rho-kinase inhibitor” (priority 2005, published 2009).

What was measured:
Type in all cases: biochemical
Purified bovine PKGα = target: T1, Purified bovine PKGα (Bos taurus, UniProt P00516); experiment: PKG kinase assay (Kinase-Glo ATP consumption); conditions: for IC50: 1 μM ATP, read-out: Kinase Inhibiting Activity (IC50) PKG; for Realative Inhibitory Activity PKG: relative ratio to ROCKII (=1.0), based on IC50 values
T1 construct: Purified bovine PKGα (Promega); purchased Promega
T1 sequence (P00516 1-671): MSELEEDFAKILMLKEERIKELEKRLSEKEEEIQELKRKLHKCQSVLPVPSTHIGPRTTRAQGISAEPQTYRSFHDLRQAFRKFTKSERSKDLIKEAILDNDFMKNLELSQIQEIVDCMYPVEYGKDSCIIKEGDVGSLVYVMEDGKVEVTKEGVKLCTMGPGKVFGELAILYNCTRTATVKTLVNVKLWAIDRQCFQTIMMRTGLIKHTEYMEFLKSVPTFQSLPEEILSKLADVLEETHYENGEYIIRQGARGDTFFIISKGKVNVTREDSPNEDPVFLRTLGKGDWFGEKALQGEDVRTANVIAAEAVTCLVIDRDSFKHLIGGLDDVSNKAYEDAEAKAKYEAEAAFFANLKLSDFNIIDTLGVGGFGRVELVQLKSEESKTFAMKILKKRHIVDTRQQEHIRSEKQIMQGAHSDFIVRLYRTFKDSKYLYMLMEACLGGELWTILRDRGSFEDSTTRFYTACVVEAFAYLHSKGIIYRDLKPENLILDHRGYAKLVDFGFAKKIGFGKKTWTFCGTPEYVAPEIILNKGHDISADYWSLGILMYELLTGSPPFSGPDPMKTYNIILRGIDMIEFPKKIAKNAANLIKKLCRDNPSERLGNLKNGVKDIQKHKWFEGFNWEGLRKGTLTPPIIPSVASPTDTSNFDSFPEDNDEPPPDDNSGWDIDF
Protocol: Purified bovine PKGα (Promega) was used to evaluate its activity to phosphorylate a substrate peptide (RKISASEF, Promega).
(§1) In a system of the total volume of 50 μL, the reaction of the above-mentioned enzyme (64 ng) was carried out at room temperature for 80 minutes in the presence of 40 mM of Tris-HCl (pH 7.5), 20 mM of magnesium chloride, 10 μM of cGMP (Sigma), 100 μM of the above peptide, and 1 μM of ATP. After the kinase reaction, the luminescence intensity corresponding to the amount of ATP in the reaction system was measured using a luciferase reagent (Kinase-Glo Luminescent Kinase Assay kit, Promega) with a chemiluminescence measurement apparatus (MicroLumat, Berthold Technologies). The amount of ATP consumed by the phosphorylation reaction was calculated by comparison with the luminescence intensity in the system when the kinase reaction was not carried out.
(§2) With this system, the kinase reaction was carried out in the presence of a compound at various concentrations, and the IC50 value of the compound was determined based on the resulting compound concentration-response curve for ATP consumption.
The ROCKII-inhibiting activity of a compound to be tested was defined as 1.0, and the inhibitory activities of the compound against kinases (PKA, PKG, CaMKII, and AuroraA) other than ROCKII were calculated as relative ratios to the ROCKII-inhibiting activity, based on the IC50 values calculated using the above-described evaluation system.

Recombinant mouse MKK4 = target: T2, Recombinant mouse MKK4 (Mus musculus, UniProt P47809); experiment: MKK4 kinase assay (Kinase-Glo ATP consumption); conditions: 1 μM ATP; read-out: Kinase Inhibiting Activity (IC50) MKK4
T2 construct: from 34th to 397th amino acids; purchased Upstate
T2 sequence (P47809 34-397): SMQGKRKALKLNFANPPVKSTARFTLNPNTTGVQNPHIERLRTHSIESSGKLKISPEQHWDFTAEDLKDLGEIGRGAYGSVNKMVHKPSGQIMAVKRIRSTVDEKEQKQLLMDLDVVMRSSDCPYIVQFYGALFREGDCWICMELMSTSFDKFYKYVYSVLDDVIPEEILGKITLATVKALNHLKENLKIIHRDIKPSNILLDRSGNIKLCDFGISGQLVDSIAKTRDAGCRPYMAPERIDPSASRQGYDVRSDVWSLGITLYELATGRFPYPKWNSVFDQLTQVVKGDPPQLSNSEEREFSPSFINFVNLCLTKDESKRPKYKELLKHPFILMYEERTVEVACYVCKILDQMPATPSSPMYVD
Protocol: as §1, with “(400” for “(64”, “25” for “40”, “10” for “20”, “0.02 mg/mL” for “10 μM of cGMP (Sigma), 100 μM”, “JNK1α1,” for “peptide,”
as §2

Purified chicken MLCK = target: T3, Purified chicken MLCK (Gallus gallus, UniProt P11799); experiment: MLCK kinase assay (Kinase-Glo ATP consumption); conditions: 1 μM ATP; read-out: Kinase Inhibiting Activity (IC50) MLCK
T3 construct: from tissue
Protocol: Purified chicken MLCK (purified by the method of M. Anne Conti, et al.: Method in Enzymol. 196, 34-47) was used to evaluate its activity to phosphorylate a substrate peptide (AKRPQRATSNVFS, Sigma).
as §1, with “(100” for “(64”, “20” for “40”, “5” for “20”, “0.2 mM” for “10 μM”, “calcium chloride, 0.02 mg/mL of BSA, 8 μg/mL of purified bovine brain calmodulin” for “cGMP”, “50” for “100”
as §2

Recombinant human Src = target: T4, Recombinant human Src (Homo sapiens, UniProt P12931); experiment: Src kinase assay (Kinase-Glo ATP consumption); conditions: 0.5 μM ATP; read-out: Kinase Inhibiting Activity (IC50) Src
T4 construct: purchased Upstate
Protocol: Recombinant human Src (Upstate) was used to evaluate its activity to phosphorylate a substrate peptide (KVEKIGEGTYGVVYK, Upstate).
as §1, with “(6 Units)” for “(64 ng)”, “MOPS-NaOH” for “Tris-HCl”, “10” for “20”, “25 mM” for “10 μM”, “manganese chloride, 300” for “cGMP (Sigma), 100”, “0.5” for “1”
as §2

| Compound | IC50 (Purified bovine PKGα) | Realative Inhibitory Activity PKG (Purified bovine PKGα) | IC50 (Recombinant mouse MKK4) | IC50 (Purified chicken MLCK) | IC50 (Recombinant human Src) |
| --- | --- | --- | --- | --- | --- |
| 2-(S)-1-(4-fluoroisoquinoline-5-sulfonyl)-4-glycyl-2-methylhomopiperazine dihydrochloride [Example 1] | 63.5 µM | 2117 | > 100 µM | > 100 µM | > 100 µM |
| CNCC(=O)N1CCCN(S(=O)(=O)c2cccc3cncc(F)c23)[C@@H](C)C1.Cl.Cl [Example 2, 2-(S)-1-(4-fluoroisoquinoline-5-sulfonyl)-2-methyl-4-(N-methylglycyl)homopiperazine dihydrochloride] | 28 µM | 933 | > 100 µM | > 100 µM | > 100 µM |
